Among the data in ChEMBL document CHEMBL1201862, “PubChem BioAssay data set” (2004) are AC50, EC50 and IC50 values, retold here.

Each structure is given as a SMILES string. The source made the active and inactive calls.

A word on the AC50: it is the concentration giving half of the maximal activity seen. Usually EC50 stands for the concentration at which the effect is half-maximal.

The subject of experiment [1] is INS1. In words: INS-1E survival protection against cytokine death – cell-based, luminescence, retest, dose response (AID 449756).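 Further: cell death triggered by IL-1 beta plus TNF-alpha plus IFN-gamma mixture; protective hits raise ATP signal compared with cytokine alone wells.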 Type of experiment: functional. As to conditions: Rattus norvegicus.
Experiment [2] deals with HEK293. In words: EBV LMP1 TES2 canonical NF-kB signalling blockers – cell-based, HEK293, luciferase, cherry-pick, dose response (AID 588343). Type of experiment: functional. The note with it: Homo sapiens.
Experiment [3] is described as follows: Trypanosoma cruzi growth suppression in host cells – NIH3T3 host cells, beta-gal luminescence, confirmation (AID 2044).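 Further: intracellular parasites grown in NIH/3T3 mouse fibroblasts as host cells; luminescent beta-galactosidase reporter signal from transgenic T. cruzi replicating inside host cells; inhibitors lower the luminescence signal.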 Type of experiment: functional, cell-based.
A short description of experiment [4]: bead-based luminescence quenchers, dual-tagged ARNT – biochemical, AlphaScreen, cherry-pick, artefact control for ARNT-TACC3 interaction inhibitor project, dose response (AID 651705).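 Further: AlphaScreen bead proximity signal that flags compounds interfering with the detection technology; potency reflects signal decrease which marks the compound as an assay artifact.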 It counts as functional. (In general: Bead proximity is the source of the signal in Alpha formats.)
Experiment [5] deals with Photoreceptor-specific nuclear receptor (Homo sapiens, UniProt Q9Y5X4). It counts as functional, cell-based.
Sequence of Photoreceptor-specific nuclear receptor (Q9Y5X4 whole entry): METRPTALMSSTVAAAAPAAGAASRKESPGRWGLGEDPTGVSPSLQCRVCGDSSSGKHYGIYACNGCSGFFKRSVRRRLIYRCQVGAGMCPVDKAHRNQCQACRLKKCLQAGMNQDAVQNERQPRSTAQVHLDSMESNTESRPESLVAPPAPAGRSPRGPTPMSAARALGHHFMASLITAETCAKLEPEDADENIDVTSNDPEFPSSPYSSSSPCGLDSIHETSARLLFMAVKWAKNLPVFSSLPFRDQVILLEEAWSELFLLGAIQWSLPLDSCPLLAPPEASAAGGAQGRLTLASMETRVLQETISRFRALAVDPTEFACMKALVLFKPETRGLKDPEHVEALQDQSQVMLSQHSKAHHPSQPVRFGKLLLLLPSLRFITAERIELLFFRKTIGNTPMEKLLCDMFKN
For experiment [6], the target named is Nonstructural protein 1 (Influenza A virus, UniProt Q194T2). It counts as functional, Influenza A virus (A/California/07/2009(H1N1)).
Sequence of Nonstructural protein 1 (Q194T2 whole entry): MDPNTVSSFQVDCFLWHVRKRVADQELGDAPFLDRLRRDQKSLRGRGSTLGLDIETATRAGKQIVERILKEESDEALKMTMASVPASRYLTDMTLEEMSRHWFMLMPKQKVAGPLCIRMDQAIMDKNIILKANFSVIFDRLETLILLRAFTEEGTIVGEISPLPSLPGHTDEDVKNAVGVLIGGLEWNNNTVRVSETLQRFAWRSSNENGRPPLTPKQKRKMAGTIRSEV
The nature of experiment [7]: NIH3T3 cell viability loss – ATP luminescence, mouse fibroblasts, counter-screen, dose response (AID 2010).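 Further: cells exposed to compound for about 90 hours before reading.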 Type of experiment: functional, cell-based. A general note: The purpose of a counterscreen is to sort out artefacts and off-target activity.
Experiment [8] concerns the target T1, Apoptotic protease-activating factor 1 (Homo sapiens, UniProt O14727).
T1 sequence (O14727 whole entry): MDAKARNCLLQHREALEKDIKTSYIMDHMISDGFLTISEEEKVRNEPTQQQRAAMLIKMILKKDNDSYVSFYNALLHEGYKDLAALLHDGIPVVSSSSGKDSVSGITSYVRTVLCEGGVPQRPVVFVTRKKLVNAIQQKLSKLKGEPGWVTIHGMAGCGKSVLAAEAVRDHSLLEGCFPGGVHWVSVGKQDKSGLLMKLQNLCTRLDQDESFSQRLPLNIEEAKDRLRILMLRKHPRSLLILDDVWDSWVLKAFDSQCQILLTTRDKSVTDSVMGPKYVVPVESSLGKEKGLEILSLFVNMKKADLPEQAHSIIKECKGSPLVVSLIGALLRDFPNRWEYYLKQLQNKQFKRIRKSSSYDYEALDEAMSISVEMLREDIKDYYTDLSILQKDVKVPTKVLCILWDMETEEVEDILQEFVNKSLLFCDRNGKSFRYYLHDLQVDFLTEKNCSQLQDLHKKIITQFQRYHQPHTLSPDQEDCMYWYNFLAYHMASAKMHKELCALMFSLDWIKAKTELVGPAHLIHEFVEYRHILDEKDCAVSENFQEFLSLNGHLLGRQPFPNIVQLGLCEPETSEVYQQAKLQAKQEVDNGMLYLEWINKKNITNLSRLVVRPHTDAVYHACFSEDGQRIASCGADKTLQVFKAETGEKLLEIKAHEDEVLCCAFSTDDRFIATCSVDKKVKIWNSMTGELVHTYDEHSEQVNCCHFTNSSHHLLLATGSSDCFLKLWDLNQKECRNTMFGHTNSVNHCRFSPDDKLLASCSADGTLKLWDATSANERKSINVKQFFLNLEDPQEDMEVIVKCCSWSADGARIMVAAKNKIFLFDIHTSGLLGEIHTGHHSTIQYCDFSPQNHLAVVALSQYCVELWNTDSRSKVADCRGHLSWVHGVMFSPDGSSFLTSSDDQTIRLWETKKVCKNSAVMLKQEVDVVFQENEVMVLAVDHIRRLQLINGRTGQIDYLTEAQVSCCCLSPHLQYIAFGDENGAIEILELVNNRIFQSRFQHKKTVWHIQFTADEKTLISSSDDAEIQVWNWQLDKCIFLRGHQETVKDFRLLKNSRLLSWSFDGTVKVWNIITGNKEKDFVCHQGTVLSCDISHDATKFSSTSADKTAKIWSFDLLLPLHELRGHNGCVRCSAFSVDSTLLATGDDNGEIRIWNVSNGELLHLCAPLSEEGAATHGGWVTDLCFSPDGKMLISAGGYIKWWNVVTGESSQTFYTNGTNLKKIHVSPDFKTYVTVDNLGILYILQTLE
Type of experiment: functional.

For experiment [9], the target named is Dual specificity protein phosphatase 3 (Homo sapiens, UniProt P51452). Nature of the experiment: VHR phosphatase inhibition, dose response, selectivity assay for STEP inhibitor project, biochemical (AID 602374). It counts as functional. The note with it: read-out: IC50_Mean.
Sequence of Dual specificity protein phosphatase 3 (P51452 whole entry): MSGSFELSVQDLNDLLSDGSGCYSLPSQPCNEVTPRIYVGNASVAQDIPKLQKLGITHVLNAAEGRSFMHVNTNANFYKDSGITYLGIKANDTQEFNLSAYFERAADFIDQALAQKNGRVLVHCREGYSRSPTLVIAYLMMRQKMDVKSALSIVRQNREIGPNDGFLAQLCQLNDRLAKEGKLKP
For experiment [10], the target named is Tyrosine-protein phosphatase non-receptor type 11 (Homo sapiens, UniProt Q06124). Nature of the experiment: PTPN11 enzyme inhibitors – biochemical, selectivity assay for STEP inhibitor project, dose response (AID 602367). As to conditions: read-out: IC50_Mean. It counts as functional.
Sequence of Tyrosine-protein phosphatase non-receptor type 11 (Q06124 whole entry): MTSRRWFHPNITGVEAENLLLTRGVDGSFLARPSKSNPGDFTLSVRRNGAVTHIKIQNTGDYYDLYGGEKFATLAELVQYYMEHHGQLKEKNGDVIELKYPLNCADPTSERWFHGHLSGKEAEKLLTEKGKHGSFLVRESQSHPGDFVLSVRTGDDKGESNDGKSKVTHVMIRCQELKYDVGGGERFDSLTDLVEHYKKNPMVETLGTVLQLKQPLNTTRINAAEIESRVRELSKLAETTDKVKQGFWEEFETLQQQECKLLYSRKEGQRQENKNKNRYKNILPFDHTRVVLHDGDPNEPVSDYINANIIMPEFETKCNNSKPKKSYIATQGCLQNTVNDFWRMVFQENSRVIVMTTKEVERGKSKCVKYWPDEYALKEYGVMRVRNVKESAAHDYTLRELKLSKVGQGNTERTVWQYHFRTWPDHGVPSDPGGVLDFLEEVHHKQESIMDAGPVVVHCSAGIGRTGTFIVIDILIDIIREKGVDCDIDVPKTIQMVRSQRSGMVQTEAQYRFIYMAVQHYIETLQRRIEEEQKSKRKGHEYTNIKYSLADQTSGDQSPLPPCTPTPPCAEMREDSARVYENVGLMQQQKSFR
Experiment [11] addresses Tyrosine-protein phosphatase non-receptor type 5 (Homo sapiens, UniProt P54829). Nature of the experiment: PTPN5 enzyme inhibition – biochemical, fluorescence intensity, uHTS hits, confirmation (AID 602372). It counts as functional. As to conditions: read-out: IC50_Mean.
The target in experiment [12] is T2, Insulin-degrading enzyme (Homo sapiens, UniProt P14735).
T2 sequence (P14735 whole entry): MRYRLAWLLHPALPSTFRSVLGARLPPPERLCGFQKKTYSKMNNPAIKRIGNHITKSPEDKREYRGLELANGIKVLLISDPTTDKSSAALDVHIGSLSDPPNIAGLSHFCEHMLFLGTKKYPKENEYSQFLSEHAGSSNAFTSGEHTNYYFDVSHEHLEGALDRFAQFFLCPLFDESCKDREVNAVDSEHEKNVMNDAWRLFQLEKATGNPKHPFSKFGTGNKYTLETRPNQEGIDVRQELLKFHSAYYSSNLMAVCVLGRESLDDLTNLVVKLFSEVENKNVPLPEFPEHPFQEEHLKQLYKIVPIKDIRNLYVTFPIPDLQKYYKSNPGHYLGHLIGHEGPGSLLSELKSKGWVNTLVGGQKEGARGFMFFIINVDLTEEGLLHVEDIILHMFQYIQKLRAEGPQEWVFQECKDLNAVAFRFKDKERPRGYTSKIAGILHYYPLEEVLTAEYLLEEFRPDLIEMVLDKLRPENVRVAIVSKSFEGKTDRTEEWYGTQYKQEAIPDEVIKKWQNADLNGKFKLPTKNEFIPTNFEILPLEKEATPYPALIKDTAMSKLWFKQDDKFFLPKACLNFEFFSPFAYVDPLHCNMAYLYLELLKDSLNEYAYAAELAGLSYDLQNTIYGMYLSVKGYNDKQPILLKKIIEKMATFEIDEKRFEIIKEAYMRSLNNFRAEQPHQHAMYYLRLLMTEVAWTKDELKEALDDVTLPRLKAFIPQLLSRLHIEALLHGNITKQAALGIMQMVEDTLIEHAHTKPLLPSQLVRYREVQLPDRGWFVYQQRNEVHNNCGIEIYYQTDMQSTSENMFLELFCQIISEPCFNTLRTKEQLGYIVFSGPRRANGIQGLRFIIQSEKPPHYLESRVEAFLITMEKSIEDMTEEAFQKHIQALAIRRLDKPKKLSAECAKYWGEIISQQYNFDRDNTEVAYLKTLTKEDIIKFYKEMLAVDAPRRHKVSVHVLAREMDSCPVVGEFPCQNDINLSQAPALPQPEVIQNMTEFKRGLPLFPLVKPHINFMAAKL
In words: cellular IDE activation of Abeta substrate cleavage – fluorescence polarization, HEK cells, dose response (AID 588439). It counts as functional, cell-based. On the technique in general: In fluorescence polarisation assays a small probe gives low polarisation when free and higher when bound to something large.

In experiment [13] the test system is HEK293. Nature of the experiment: optical interference in Abeta FP readout, dose response, artefact control for IDE activator project, biochemical, fluorescence polarization (AID 588442). Type of experiment: functional, cell-based. The note with it: Homo sapiens.
The test system of experiment [14] is HEK293. In words: membrane integrity loss in HEK cells – cell-based, fluorescence, cytotoxicity control for IDE activator project, dose response (AID 588440).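 Further: cytotoxicity by LDH release measuring loss of membrane integrity.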 The note with it: Homo sapiens. Type of experiment: functional.
Experiment [15] addresses T2, Insulin-degrading enzyme. In words: recombinant IDE activation, cell-free – biochemical, fluorescence polarization, counter-screen for IDE activator project, dose response (AID 588681).
Experiment [16] is described as follows: Counterscreen for activators of the function of SWI/SNF related, matrix associated, actin dependent regulator of chromatin, subfamily a, member 2 (SMARCA2, BRM): Luminescence-based cell-based high throughput dose response assay to identify non-selective compounds using the VP16 reporter assay. Type of experiment: functional.
In experiment [17] the target is SWI/SNF-related matrix-associated actin-dependent regulator of chromatin subfamily A member 2 (Homo sapiens, UniProt P51531). Nature of the experiment: Luminescence-based cell-based high throughput dose response assay to identify activators of the function of SWI/SNF related, matrix associated, actin dependent regulator of chromatin, subfamily a, member 2 (SMARCA2, BRM). Type of experiment: functional.
Sequence of SWI/SNF-related matrix-associated actin-dependent regulator of chromatin subfamily A member 2 (P51531 whole entry): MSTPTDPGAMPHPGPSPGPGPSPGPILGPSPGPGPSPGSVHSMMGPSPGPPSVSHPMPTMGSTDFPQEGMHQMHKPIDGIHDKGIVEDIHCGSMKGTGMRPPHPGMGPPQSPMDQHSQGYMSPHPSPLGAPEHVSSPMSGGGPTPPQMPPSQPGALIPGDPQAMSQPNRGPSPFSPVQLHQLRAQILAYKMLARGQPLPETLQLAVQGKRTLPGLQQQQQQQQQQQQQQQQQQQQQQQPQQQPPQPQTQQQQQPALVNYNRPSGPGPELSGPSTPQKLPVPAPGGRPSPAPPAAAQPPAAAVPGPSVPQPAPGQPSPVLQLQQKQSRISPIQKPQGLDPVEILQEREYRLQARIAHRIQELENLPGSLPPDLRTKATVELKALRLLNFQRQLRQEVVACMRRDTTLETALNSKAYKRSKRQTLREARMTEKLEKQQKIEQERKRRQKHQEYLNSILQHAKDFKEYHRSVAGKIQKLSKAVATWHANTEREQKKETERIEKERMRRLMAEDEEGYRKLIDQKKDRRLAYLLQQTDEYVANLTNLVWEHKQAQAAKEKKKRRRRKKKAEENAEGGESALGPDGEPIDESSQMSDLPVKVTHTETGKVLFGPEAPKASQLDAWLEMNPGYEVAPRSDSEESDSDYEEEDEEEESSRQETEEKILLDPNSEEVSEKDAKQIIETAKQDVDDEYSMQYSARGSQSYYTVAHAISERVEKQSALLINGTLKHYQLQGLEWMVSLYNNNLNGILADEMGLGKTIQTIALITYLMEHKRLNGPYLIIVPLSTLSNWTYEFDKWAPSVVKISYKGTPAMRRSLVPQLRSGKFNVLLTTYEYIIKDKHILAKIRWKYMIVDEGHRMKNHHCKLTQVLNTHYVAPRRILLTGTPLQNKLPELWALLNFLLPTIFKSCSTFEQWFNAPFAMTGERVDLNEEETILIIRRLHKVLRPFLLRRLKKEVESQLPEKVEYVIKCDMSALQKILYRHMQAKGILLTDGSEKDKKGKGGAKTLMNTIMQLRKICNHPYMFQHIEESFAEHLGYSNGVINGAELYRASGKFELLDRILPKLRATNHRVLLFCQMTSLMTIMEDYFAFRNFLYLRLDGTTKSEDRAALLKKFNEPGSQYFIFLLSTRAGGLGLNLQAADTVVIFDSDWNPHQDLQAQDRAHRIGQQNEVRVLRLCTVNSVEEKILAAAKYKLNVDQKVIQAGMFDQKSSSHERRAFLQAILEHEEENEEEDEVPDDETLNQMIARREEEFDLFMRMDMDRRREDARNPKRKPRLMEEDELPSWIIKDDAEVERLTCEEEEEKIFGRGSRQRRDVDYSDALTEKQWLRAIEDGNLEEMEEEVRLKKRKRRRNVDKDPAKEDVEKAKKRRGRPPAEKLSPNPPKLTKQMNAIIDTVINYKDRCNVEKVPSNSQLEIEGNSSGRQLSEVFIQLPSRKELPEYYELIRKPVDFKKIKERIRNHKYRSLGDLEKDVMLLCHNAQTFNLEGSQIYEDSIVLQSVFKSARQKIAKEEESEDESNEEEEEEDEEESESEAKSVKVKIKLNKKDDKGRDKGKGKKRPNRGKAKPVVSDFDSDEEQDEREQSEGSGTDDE

The target of experiment [18] is T3, Caspase-6 (Homo sapiens, UniProt P55212).
T3 sequence (P55212 whole entry): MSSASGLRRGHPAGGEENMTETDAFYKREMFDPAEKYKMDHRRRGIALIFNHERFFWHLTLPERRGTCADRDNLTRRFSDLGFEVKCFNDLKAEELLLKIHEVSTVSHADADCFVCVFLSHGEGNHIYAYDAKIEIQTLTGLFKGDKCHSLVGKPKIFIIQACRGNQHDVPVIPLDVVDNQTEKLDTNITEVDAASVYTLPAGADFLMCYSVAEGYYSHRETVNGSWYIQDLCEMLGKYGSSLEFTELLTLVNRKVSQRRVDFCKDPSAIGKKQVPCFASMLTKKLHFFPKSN
Nature of the experiment: inhibition of CASP6 peptide cleavage – biochemical, VEID-R110 fluorescence, cherry-pick, dose response (AID 720632).

The target of experiment [19] is T4, Carboxy-terminal domain RNA polymerase II polypeptide A small phosphatase 1 (Homo sapiens, UniProt Q9GZU7).
T4 sequence (Q9GZU7 whole entry): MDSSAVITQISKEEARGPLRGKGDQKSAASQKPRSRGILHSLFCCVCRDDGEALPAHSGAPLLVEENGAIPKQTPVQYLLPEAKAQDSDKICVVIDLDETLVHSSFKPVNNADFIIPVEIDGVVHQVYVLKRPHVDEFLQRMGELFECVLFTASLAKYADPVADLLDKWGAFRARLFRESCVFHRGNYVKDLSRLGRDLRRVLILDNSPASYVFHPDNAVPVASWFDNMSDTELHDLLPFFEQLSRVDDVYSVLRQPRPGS
In words: CTDSP1 inhibitors, concentration-response, biochemical, absorbance readout, ultra-high-throughput screen actives (AID 540297). Type of experiment: functional.

Experiment [20] deals with Adenosylmethionine-8-amino-7-oxononanoate aminotransferase (Mycobacterium tuberculosis, UniProt P9WQ81). In words: Mycobacterium tuberculosis BioA enzyme inhibitor Measured in Biochemical System Using Plate Reader - 2163-02_Inhibitor_Dose_CherryPick_Activity. Type of experiment: functional, Mycobacterium tuberculosis UT205.
Sequence of Adenosylmethionine-8-amino-7-oxononanoate aminotransferase (P9WQ81 whole entry): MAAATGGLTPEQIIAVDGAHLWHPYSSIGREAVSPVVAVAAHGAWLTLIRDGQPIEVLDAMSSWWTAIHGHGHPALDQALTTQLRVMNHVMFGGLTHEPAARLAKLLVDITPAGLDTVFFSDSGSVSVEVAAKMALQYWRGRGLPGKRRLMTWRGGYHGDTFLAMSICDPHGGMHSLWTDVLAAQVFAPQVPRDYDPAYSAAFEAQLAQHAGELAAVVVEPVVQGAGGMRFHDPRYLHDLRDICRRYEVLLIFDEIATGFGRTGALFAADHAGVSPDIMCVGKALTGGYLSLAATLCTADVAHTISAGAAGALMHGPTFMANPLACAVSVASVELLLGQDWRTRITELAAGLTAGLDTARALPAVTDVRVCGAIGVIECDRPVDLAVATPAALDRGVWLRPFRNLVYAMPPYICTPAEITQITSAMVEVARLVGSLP

Sequence of Tyrosine-protein phosphatase non-receptor type 5 (P54829 whole entry): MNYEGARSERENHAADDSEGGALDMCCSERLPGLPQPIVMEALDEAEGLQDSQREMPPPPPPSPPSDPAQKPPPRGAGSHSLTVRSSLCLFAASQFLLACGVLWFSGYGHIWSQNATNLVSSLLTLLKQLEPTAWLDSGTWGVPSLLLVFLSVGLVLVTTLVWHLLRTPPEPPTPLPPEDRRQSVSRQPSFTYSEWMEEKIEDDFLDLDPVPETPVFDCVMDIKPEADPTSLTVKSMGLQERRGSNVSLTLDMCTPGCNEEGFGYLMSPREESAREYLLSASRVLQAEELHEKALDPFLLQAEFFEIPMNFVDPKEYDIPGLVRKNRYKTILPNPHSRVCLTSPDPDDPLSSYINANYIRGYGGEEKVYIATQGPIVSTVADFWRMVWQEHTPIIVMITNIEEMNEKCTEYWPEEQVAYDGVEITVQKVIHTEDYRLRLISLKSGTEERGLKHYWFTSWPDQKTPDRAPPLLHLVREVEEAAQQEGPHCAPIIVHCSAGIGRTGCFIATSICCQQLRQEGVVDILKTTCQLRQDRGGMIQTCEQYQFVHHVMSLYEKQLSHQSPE

On to `CCC(C)Nc1nc(-c2ccccn2)nc2ccccc12` (stereo not drawn), for which the results for the concentration at half-maximal activity (AC50) in [1], in experiment [2] and in experiment [4] were 2.89 µM (active), 4.94 µM (active) and 117 µM (active), respectively. The EC50 in experiment [3] was 1.33 µM (active); in experiment [7], > 30 µM (not active). Besides, the results for the IC50 in [5] and in experiment [6] were 4.14 µM (active) and 25.5 µM (active), respectively.

As for `CC(=O)c1ccc2c(c1)c(C#N)c1ccccc1[n+]2[O-]`, the IC50 in [8] was 88.8 µM (active).

On to `Cc1ccc(N=C(S)N(CCN(C)C)Cc2cccs2)c(C)c1`, for which the IC50 in experiment [9] was 1.36 µM (active); in experiment [10] it was 3.37 µM (active); in experiment [11], 24.6 µM (inactive).

Consider `CC(OC(=O)c1c2c(nc3ccccc13)/C(=C\c1ccc3c(c1)OCO3)CCC2)C(=O)Nc1ccc(S(N)(=O)=O)cc1` (stereo not drawn), for which the EC50 in experiment [12], in experiment [13] and in experiment [15] was > 54.7 µM (inactive) in each case. Also, the IC50 in experiment [14] is > 89.2 µM (inactive).

For the compound `Cc1cccc(C(=O)N[C@H](C(=O)Nc2ncc(C)s2)C(C)C)c1`, the EC50 in experiment [16] and in [17] was > 91.1 µM (inactive) in each case. For the same compound, in experiment [5], the IC50 is 0.0592 µM (active).

Regarding `O=S(=O)(Nc1ccccc1)c1cccc2nsnc12`, the IC50 in experiment [9] is 2.91 µM (active); in experiment [19], 6.86 µM (active); in [10], 3.9 µM (active); in experiment [11], 35.1 µM (inactive). Further, the AC50 in [18] is 8.86 µM (active).

Take `Cn1c(CN2CCOCC2)nnc1SCC(=O)Nc1ccc([N+](=O)[O-])cc1O`: the EC50 in experiment [12], in [13] and in experiment [15] was > 54.7 µM (inactive) each time. In addition, the IC50 in experiment [14] was > 89.2 µM (inactive).

Turning to `Cc1ccc(S(=O)(=O)OCCC2=CC(=O)CCN2Cc2ccccc2)cc1`, the EC50 in experiment [12] is > 54.7 µM (inactive); in experiment [13], > 55.9 µM (inactive); in experiment [15], > 54.7 µM (inactive). In addition, in experiment [14], the IC50 is > 89.1 µM (inactive).

As for `O=C(C1CC1)N1CC[C@@H]2[C@H]1c1cc(Br)ccc1N[C@@H]2CO`, the AC50 in experiment [20] was 7.01 µM (active).

For the compound `CN1c2ccc(-c3cccc(F)c3)cc2[C@H]2[C@H](CCN2C(=O)c2ccncc2)[C@@H]1CO`, the AC50 in experiment [20] was 7.24 µM (active).
